Reference: ChEMBL document CHEMBL1201862, “PubChem BioAssay data set” (2004)
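Interpolation was linear, between the two tested concentrations surrounding the appropriate level; five concentrations were tested over 48 hours in 96-well plates. GI50 is the concentration that inhibits growth by half.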 The source made the active and inactive calls. Rule as the data show it: active = GI50 up to about 1.1 µM and inactive = higher.

Experiments:
Assay in all cases: inhibition of tumour cell growth, NCI panel, 48 h
SR = test system: SR
SF-539 = test system: SF-539
SF-295 = test system: SF-295
OVCAR-8 = test system: OVCAR-8
OVCAR-5 = test system: OVCAR-5
XF498 = test system: XF498
EKVX = test system: EKVX
SK-OV-3 = test system: SK-OV-3
SNB-75 = test system: SNB-75
SK-MEL-28 = test system: SK-MEL-28
RXF 393 = test system: RXF 393
OVCAR-4 = test system: OVCAR-4
COLO 205 = test system: COLO 205
TK-10 = test system: TK-10
Malme-3M = test system: Malme-3M
HOP-62 = test system: HOP-62
M14 = test system: M14
MDA-MB-435 = test system: MDA-MB-435
T47D = test system: T47D
MCF7 = test system: MCF7

SMILES | GI50 (SR) | GI50 (SF-539) | GI50 (SF-295) | GI50 (OVCAR-8) | GI50 (OVCAR-5) | GI50 (XF498) | GI50 (EKVX) | GI50 (SK-OV-3) | GI50 (SNB-75) | GI50 (SK-MEL-28) | GI50 (RXF 393) | GI50 (OVCAR-4) | GI50 (COLO 205) | GI50 (TK-10) | GI50 (Malme-3M) | GI50 (HOP-62) | GI50 (M14) | GI50 (MDA-MB-435) | GI50 (T47D) | GI50 (MCF7)
C=C1CCC(OC(C)=O)C2(C)C(OC(C)=O)CC3OC3(C)C2C(OC(C)=O)C2C(C)C(=O)OC2C1Cl (stereo not drawn) | > 100 µM (inactive) | > 100 µM (inactive) | > 100 µM (inactive) | > 100 µM (inactive) | > 100 µM (inactive) | > 100 µM (inactive) | > 100 µM (inactive) | > 100 µM (inactive) | > 100 µM (inactive) | > 100 µM (inactive) | > 100 µM (inactive) | > 100 µM (inactive) | > 100 µM (inactive) | > 100 µM (inactive) | > 100 µM (inactive) | > 100 µM (inactive) | > 100 µM (inactive) |  |  | 
Cc1nc2ccccn2c1/N=N/c1ccc(C(=O)NN)cc1 |  | 77.3 µM (inactive) | 43.2 µM (inactive) | 95.3 µM (inactive) | 36.1 µM (inactive) | 75 µM (inactive) | 36.5 µM (inactive) | 48 µM (inactive) |  | 80.9 µM (inactive) | 9.82 µM (inactive) | > 100 µM (inactive) | 51.2 µM (inactive) | 23 µM (inactive) | > 100 µM (inactive) | 38.3 µM (inactive) | > 100 µM (inactive) |  |  | 
CN(C)C(=N)c1ccccc1 | > 100 µM (inactive) | > 100 µM (inactive) | > 100 µM (inactive) | > 100 µM (inactive) | > 100 µM (inactive) | > 100 µM (inactive) |  |  | > 100 µM (inactive) | > 100 µM (inactive) | > 100 µM (inactive) | > 100 µM (inactive) | > 100 µM (inactive) | > 100 µM (inactive) | > 100 µM (inactive) | > 100 µM (inactive) | > 100 µM (inactive) |  |  | 
COC(=O)C1CC2CC(=NNC(N)=O)CC2C1 (stereo not drawn) |  | > 100 µM (inactive) | > 100 µM (inactive) | > 100 µM (inactive) | > 100 µM (inactive) | > 100 µM (inactive) | > 100 µM (inactive) | > 100 µM (inactive) | > 100 µM (inactive) | > 100 µM (inactive) | > 100 µM (inactive) | > 100 µM (inactive) | > 100 µM (inactive) | > 100 µM (inactive) | > 100 µM (inactive) | > 100 µM (inactive) | > 100 µM (inactive) |  |  | 
COc1ccc(C(=O)C(C(=O)CC(=O)Nc2cccc(C(F)(F)F)c2)c2ccc(OC)cc2)cc1 (stereo not drawn) | > 100 µM (inactive) | > 100 µM (inactive) | > 100 µM (inactive) | > 100 µM (inactive) | 7.73 µM (inactive) | > 100 µM (inactive) | > 100 µM (inactive) | > 100 µM (inactive) | 30.8 µM (inactive) | > 100 µM (inactive) | 78.9 µM (inactive) | > 100 µM (inactive) | > 100 µM (inactive) |  | > 100 µM (inactive) | > 100 µM (inactive) | > 100 µM (inactive) |  |  | 
CCc1ccccc1N1C(=O)C(=O)C(c2nc3ccccc3s2)C(=O)C1=O | 55 µM (inactive) | > 100 µM (inactive) | 83 µM (inactive) | 41.8 µM (inactive) | > 100 µM (inactive) | > 100 µM (inactive) | > 100 µM (inactive) | > 100 µM (inactive) |  | > 100 µM (inactive) | > 100 µM (inactive) | 79.8 µM (inactive) |  | > 100 µM (inactive) | > 100 µM (inactive) | > 100 µM (inactive) | 59 µM (inactive) |  |  | 
COC(=O)CCC(NC(=S)N/N=C(\C)c1cnccn1)C(=O)OC (stereo not drawn) | 29.2 µM (inactive) | 62.5 µM (inactive) | 52.4 µM (inactive) | 38.6 µM (inactive) | 21 µM (inactive) | > 100 µM (inactive) | 40 µM (inactive) | > 100 µM (inactive) | 85.3 µM (inactive) | 55.8 µM (inactive) | > 100 µM (inactive) | 56.2 µM (inactive) | 34.4 µM (inactive) | > 100 µM (inactive) | 54.1 µM (inactive) | 36.2 µM (inactive) | 42.4 µM (inactive) |  |  | 
CC1=C(C(=O)Nc2ccccc2C)C(c2ccc(C3C(C(=O)Nc4ccccc4C)=C(C)NC(C)=C3C(=O)Nc3ccccc3C)cc2)C(C(=O)Nc2ccccc2C)=C(C)N1 | 2.67 µM (inactive) | 4.44 µM (inactive) | 4.57 µM (inactive) | 2.8 µM (inactive) | 14.1 µM (inactive) | 15.8 µM (inactive) | 7.31 µM (inactive) | 15.3 µM (inactive) | 14.4 µM (inactive) | 2.04 µM (inactive) | 4.31 µM (inactive) | 8.99 µM (inactive) | 3.7 µM (inactive) | 10.7 µM (inactive) | 2.19 µM (inactive) | 21.1 µM (inactive) | 2.82 µM (inactive) | 4.32 µM (inactive) | 4.24 µM (inactive) | 3.37 µM (inactive)
C[n+]1c2ccccc2c(CNC(CS)C(=O)O)c2ccccc21 (stereo not drawn) | 12.7 µM (inactive) | 18.4 µM (inactive) | 24.2 µM (inactive) | 25.4 µM (inactive) | 44.5 µM (inactive) | 24.3 µM (inactive) | 19 µM (inactive) | 23.1 µM (inactive) | 21.7 µM (inactive) |  | 24.1 µM (inactive) | 28.1 µM (inactive) | 19.2 µM (inactive) | 39.1 µM (inactive) | 37.8 µM (inactive) | 15.5 µM (inactive) | 38.9 µM (inactive) |  |  | 
Nc1cccc(C(=O)/C=C/c2ccccc2O)c1 | 44.7 µM (inactive) | > 100 µM (inactive) | > 100 µM (inactive) | > 100 µM (inactive) | > 100 µM (inactive) | > 100 µM (inactive) | > 100 µM (inactive) | > 100 µM (inactive) | 13.2 µM (inactive) | > 100 µM (inactive) | 85.5 µM (inactive) |  | > 100 µM (inactive) | > 100 µM (inactive) | > 100 µM (inactive) | > 100 µM (inactive) | > 100 µM (inactive) |  |  | 
[C-]#[N+][C@@H]1C2[C@H](CC[C@@]1(C)O)C(=C)CC[C@@H]2[C@@]1(C)CC[C@H](Cl)C(C)(C)O1 (stereo partly drawn) |  | 6.67 µM (inactive) | 12.1 µM (inactive) | 3.29 µM (inactive) |  | 4.71 µM (inactive) | 7.14 µM (inactive) | 25.4 µM (inactive) | 7.87 µM (inactive) | 26.3 µM (inactive) | 14 µM (inactive) | 3.24 µM (inactive) | 3.2 µM (inactive) | 16.2 µM (inactive) | 5.28 µM (inactive) |  | 2.81 µM (inactive) |  |  | 
C#CC1(O)CCC2C3CCc4cc(Oc5nc(F)nc(-c6c7ccccc7c7n6CCS7)n5)ccc4C3CC[C@@]21C (stereo partly drawn) | 5.79 µM (inactive) | 15.7 µM (inactive) | 15.6 µM (inactive) | 27.7 µM (inactive) | > 100 µM (inactive) | 37.7 µM (inactive) |  |  | 12.2 µM (inactive) | 21.1 µM (inactive) |  | 15.3 µM (inactive) | 29 µM (inactive) | 27.2 µM (inactive) | 38.5 µM (inactive) | 17.9 µM (inactive) | 17.5 µM (inactive) |  |  | 
COc1ccc2nc3cc(Cl)ccc3c(NC(C)CCCN(CCCl)CCCl)c2c1 (stereo not drawn) | 0.0463 µM (active) | 0.55 µM (active) | 0.215 µM (active) | 0.169 µM (active) | 0.929 µM (active) | 0.333 µM (active) | 0.787 µM (active) | 0.83 µM (active) | 1.42 µM (inactive) | 5 µM (inactive) | 1.04 µM (active) | 0.849 µM (active) | 0.397 µM (active) | 1.3 µM (inactive) | 1.85 µM (inactive) | 1.4 µM (inactive) | 0.809 µM (active) |  |  | 
